The text below walks through data of patent US10308654B2, “Preparation and use of kinase inhibitor” (CHANGZHOU LONGTHERA PHARMACEUTICALS INC, priority 2015, dated 2019).

One experiment deals with CDK4/CyclinD1 (Homo sapiens (Human), UniProt P11802). Kind of experiment: CDK kinase activity assay (LANCE TR-FRET, ULight-4E-BP1 substrate). It counts as biochemical. Particulars: CDK4/CyclinD1, 60 minutes incubation. The procedure:
(§1) The CDK kinase used in this experiment: CDK4/CyclinD1 (invitrogen, Item No: PV4400); CDK6/CyclinD1 (invitrogen, Item No: PV4401); CDK1/CyclinB (invitrogen, Item No: PV3292).
(§2) Reagents used: Substrate is ULight-4E-BP1 (PerkinElmer, Item No: TRF0128); antibody is Eu-labeledanti-phospho-eIF4E-bindingprotein1 (Thr37/46) (Perkin-Elmer, Item No: TRF0216).
(§3) The test compound was dissolved in dimethyl sulfoxide and the solution was diluted to each concentration gradient with a buffer (50 mM HEPES, 10 mM MgCl2, 1 mM EGTA, 2 mM DTT and 0.01% Tween20) according to the test needs, the concentration of dimethyl sulfoxide was 4%. The buffer was then used to dilute ATP and the substrate ULight-4E-BP1 to prepare the mixture of 800 μM ATP and 200 nM substrate for further use. 2.5 μL of mixture of substrate and ATP or 2.5 μL of substrate was added to the wells, and then 2.5 μL of compound or 4% buffer of dimethyl sulfoxide was added, finally 5 μL of enzyme (final concentration was 0.66 μg/mL) was added, incubated avoiding light at room temperature for 60 minutes. 5 μL of EDTA stop buffer (final concentration was […]) diluted with 1×detectionbuffer (LANCEDetectionBuffer, 10×, PerkinElmer, CR97-100) was added to each well, and then 5 μL of antibody (final concentration was 2 nM) diluted with 1×detectionbuffer was added, incubated avoiding light at room temperature for 60 minutes. Perkin Elmer EnVision® TRFRETmode (Excitation wavelength: 320 nm, emission wavelength: 615 nm and 665 nm) was used to measure plates.
(§4) The inhibition rate of the sample was determined by the following formula: […]
(§5) IC50 values were calculated using GraphPadPrism software.

A further experiment deals with CDK1/CyclinB (Homo sapiens (Human), UniProt P06493). Described as above. The format is biochemical. The settings on record: 60 minutes incubation. As for the experimental part:
as §1, §2, §3, §4, §5

A further experiment relates to Colo205 cells. Kind of experiment: Proliferation inhibitory activity against human colon cancer cell line Colo205 (CCK8). The format is cell-based. The settings on record: COLO 205, 96 hours. The procedure:
In vitro cell assay described below could determine the proliferation inhibitory activity against human colon cancer cell line of the test compounds, and their activities could be represented by IC50 value.
Colo205 cells (Chinese Academy of Sciences typical culture storage committee cell bank) were inoculated in 96-well culture plate with a suitable cell concentration of 2000 cells per hole, 140 μL of medium per well, then incubated in a carbon dioxide incubator at 37° C. overnight. 10 μL of different concentrations of the test compounds were added and reacted for 96 hours, and then the solvent control group (negative control) was set. The proliferation inhibitory activities against tumor cells of the test compounds were tested by CCK8 (CellCounting Kit-8, Item No: CK04, purchased from Tongren Chemical) method after 96 hours. The full-wavelength microplate reader SpectraMax190 was used for reading, the measurement wavelength was 450 nm.
as §4
IC50 value was calculated by four parameter regression using microplate reader with random software.

As a reminder, the IC50 is the concentration needed to halve the response being measured. Low readings indicate greater potency, high ones weaker potency.

CDK4/CyclinD1, sequence (P11802 whole entry): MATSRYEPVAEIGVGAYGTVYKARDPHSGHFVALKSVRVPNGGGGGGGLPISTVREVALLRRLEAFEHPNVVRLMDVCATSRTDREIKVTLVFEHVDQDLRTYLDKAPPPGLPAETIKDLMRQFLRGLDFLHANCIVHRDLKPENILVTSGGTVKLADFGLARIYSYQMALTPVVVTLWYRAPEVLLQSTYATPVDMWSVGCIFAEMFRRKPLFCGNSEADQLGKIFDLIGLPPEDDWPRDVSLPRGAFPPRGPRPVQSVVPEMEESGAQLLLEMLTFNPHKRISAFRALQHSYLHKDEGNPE
CDK4/CyclinD1, sequence (P24385 whole entry partner): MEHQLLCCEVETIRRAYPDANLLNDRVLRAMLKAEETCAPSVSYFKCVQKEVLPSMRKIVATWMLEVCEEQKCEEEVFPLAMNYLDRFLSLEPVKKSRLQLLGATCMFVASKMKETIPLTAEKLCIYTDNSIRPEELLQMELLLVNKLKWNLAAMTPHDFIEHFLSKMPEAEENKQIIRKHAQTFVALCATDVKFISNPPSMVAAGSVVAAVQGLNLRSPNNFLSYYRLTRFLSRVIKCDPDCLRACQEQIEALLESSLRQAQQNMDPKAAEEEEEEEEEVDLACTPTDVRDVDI
CDK1/CyclinB, sequence (P06493 whole entry): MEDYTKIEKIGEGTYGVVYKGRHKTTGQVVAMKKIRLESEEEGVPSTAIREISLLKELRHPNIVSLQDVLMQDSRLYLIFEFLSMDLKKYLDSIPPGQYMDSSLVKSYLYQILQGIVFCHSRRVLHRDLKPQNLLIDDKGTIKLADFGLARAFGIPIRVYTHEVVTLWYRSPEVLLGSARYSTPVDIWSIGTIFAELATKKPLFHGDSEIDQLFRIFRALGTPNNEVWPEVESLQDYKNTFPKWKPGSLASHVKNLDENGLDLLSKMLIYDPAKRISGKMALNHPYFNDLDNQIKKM
CDK1/CyclinB, sequence (P14635 whole entry partner): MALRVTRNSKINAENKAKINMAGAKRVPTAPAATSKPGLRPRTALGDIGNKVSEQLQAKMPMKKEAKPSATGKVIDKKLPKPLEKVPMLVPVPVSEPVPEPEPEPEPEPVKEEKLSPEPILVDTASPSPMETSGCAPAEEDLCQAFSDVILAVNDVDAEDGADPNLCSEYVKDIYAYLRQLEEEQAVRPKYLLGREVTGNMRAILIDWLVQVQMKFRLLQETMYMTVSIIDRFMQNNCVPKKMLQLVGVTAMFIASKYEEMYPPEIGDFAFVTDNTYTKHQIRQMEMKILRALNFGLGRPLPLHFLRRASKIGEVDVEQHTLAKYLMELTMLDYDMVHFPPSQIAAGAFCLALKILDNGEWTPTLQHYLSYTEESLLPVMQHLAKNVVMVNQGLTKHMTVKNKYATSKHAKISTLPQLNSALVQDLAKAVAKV

Turning to `CN1CCN(c2ccc(Nc3ncc4cc(C(=O)N5CCCC5)n(N5CCCCC5)c4n3)nc2)CC1` [Example 21, (2-((5-(4-methylpiperazin-1-yl)pyridin-2-yl)amino)-7-(piperidin-1-yl)-7H-pyrrolo[2,3-d]pyrimidin-6-yl)-pyrrolidin-1-ylmethanone], the IC50 is < 100 nM at CDK4/CyclinD1, > 500 nM against CDK1/CyclinB and > 2000 nM in the experiment with Colo205 cells.

In the case of `CN(C)C(=O)c1cc2cnc(Nc3ccc(N4CCNCC4)cn3)nc2n1N1CCCCCC1` [Example 15, 7-(hexamethyleneimin-1-yl)N,N-dimethyl-2-((5-(piperazin-1-yl)pyridin-2-yl)amino)-7H-pyrrolo[2,3-d]pyrimidine-6-carboxamide], the IC50 on CDK4/CyclinD1 is < 100 nM; against CDK1/CyclinB, > 500 nM; in the experiment with Colo205 cells, > 2000 nM.

For `CN(C)C(=O)c1cc2cnc(Nc3ccc(N4CCOCC4)cn3)nc2n1N1CCCCC1` [Example 25, N,N-dimethyl-2-((5-morpholinopyridin-2-yl)amino)-7-(piperidin-1-yl)-7H-pyrrolo[2,3-d]pyrimidine-6-carboxamide], the IC50 against CDK4/CyclinD1 is < 100 nM; on CDK1/CyclinB it was > 500 nM; with Colo205 cells it was > 2000 nM.

As for `CN(C)C(=O)c1cc2cnc(Nc3ccc(N4CCNC(C)(C)C4)cn3)nc2n1N1CCCCC1` [Example 20, 2-((5-(3,3-dimethylpiperazin-1-yl)pyridin-2-yl)amino)-N,N-dimethyl-7-(piperidin-1-yl)-7H-pyrrolo[2,3-d]pyrimidine-6-carboxamide], the 50% inhibitory concentration (IC50) is < 100 nM at CDK4/CyclinD1, > 500 nM against CDK1/CyclinB and 500 to 2000 nM in the experiment with Colo205 cells.

In the case of `C[C@@H]1CN(c2ccc(Nc3ncc4cc(C(=O)N(C)C)n(N5CCCCC5)c4n3)nc2)C[C@H](C)N1` [Example 27, 2-((5-((3S,5R)-3,5-dimethylpiperazin-1-yl)pyridin-2-yl)amino)-N,N-dimethyl-7-(piperidin-1-yl)-7H-pyrrolo[2,3-d]pyrimidine-6-carboxamide], the IC50 at CDK4/CyclinD1 was < 100 nM; on CDK1/CyclinB it was > 500 nM; with Colo205 cells, 500 to 2000 nM.

With `CN1CCN(c2ccc(Nc3ncc4cc(C(=O)N5CCC5)n(N5CCCCC5)c4n3)nc2)CC1` [Example 16, Azetidin-1-yl-(2-((5-(4-methylpiperazin-1-yl)pyridin-2-yl)amino)-7-(piperidin-1-yl)-7H-pyrrolo[2,3-d]pyrimidin-6-yl)methanone], the half-maximal inhibitory concentration (IC50) is < 100 nM against CDK4/CyclinD1, > 500 nM against CDK1/CyclinB and 500 to 2000 nM in the experiment on Colo205 cells.

Take `CN(C)C(=O)c1cc2cnc(Nc3ccc(N4CCNCC4)cn3)nc2n1N1CCCCC1` [Example 13]: the IC50 on CDK4/CyclinD1 was < 100 nM; in the experiment with Colo205 cells, 500 to 2000 nM.

Compound `CN1CCN(c2ccc(Nc3ncc4cc(C(=O)N(C)C)n(N5CCOCC5)c4n3)nc2)CC1` [Example 22, N,N-dimethyl-2-((5-(4-methylpiperazin-1-yl)pyridin-2-yl)amino)-7-morpholino-7H-pyrrolo[2,3-d]pyrimidine-6-carboxamide] returned an IC50 on CDK4/CyclinD1 of 100 to 500 nM.

Turning to `CCN1CCN(c2ccc(Nc3ncc4cc(C(=O)N(C)C)n(N5CCCCC5)c4n3)nc2)CC1` [Example 26, N,N-dimethyl-2-((5-(4-ethylpiperazin-1-yl)pyridin-2-yl)amino)-7-(piperidin-1-yl)-7H-pyrrolo[2,3-d]pyrimidine-6-carboxamide], the IC50 on CDK4/CyclinD1 is < 100 nM; at CDK1/CyclinB, > 500 nM; with Colo205 cells it was 500 to 2000 nM.

As to `CN1CCN(c2ccc(Nc3ncc4cc(C(=O)N(C)C)n(N5CCCCC5)c4n3)nc2)CC1` [Example 14, N,N-dimethyl-2-((5-(4-methylpiperazin-1-yl)pyridin-2-yl)amino)-7-(piperidin-1-yl)-7H-pyrrolo[2,3-d]pyrimidine-6-carboxamide], the IC50 is < 100 nM against CDK4/CyclinD1, > 500 nM against CDK1/CyclinB and 500 to 2000 nM in the experiment on Colo205 cells.

Regarding `CN(C)C(=O)c1cc2cnc(Nc3ccc(N4CCN(C(=O)OC(C)(C)C)CC4)cn3)nc2n1N1CCCC1` [Example 19, Tert-butyl 4-(6-((6-(dimethylcarbamoyl)-7-(pyrrolidin-1-yl)-7H-pyrrolo[2,3-d]pyrimidin-2-yl)amino)pyridin-3-yl)piperazine-1-carboxylate], the IC50 was < 100 nM at CDK4/CyclinD1 and > 2000 nM with Colo205 cells.

Regarding `CN(C)C(=O)c1cc2cnc(Nc3ccc(N4CCNCC4)cn3)nc2n1N1CCCC1` [Example 24, N,N-dimethyl-2-((5-(piperazin-1-yl)pyridin-2-yl)amino)-7-(pyrrolidin-1-yl)-7H-pyrrolo[2,3-d]pyrimidine-6-carboxamide], the IC50 was < 100 nM on CDK4/CyclinD1, > 500 nM at CDK1/CyclinB and > 2000 nM in the experiment on Colo205 cells.

With `CN(C)C(=O)c1cc2cnc(Nc3ccc(N4CCNCC4)cn3)nc2n1N1CCOCC1` [Example 28, N,N-dimethyl-2-((5-(piperazin-1-yl)pyridin-2-yl)amino)-7-morpholino-7H-pyrrolo[2,3-d]pyrimidine-6-carboxamide], on CDK4/CyclinD1, the IC50 lay in the range of 100 to 500 nM.

Consider `CCN(CC)C(=O)c1cc2cnc(Nc3ccc(N4CCNCC4)cn3)nc2n1N1CCCCC1` [Example 29, N,N-diethyl-2-((5-(piperazin-1-yl)pyridin-2-yl)amino)-7-(piperidin-1-yl)-7H-pyrrolo[2,3-d]pyrimidine-6-carboxamide], for which the IC50 was < 100 nM against CDK4/CyclinD1, > 500 nM against CDK1/CyclinB and > 2000 nM in the experiment with Colo205 cells.

On to `O=C(c1cc2cnc(Nc3ccc(N4CCNCC4)cn3)nc2n1N1CCCCC1)N1CCC1` [Example 17, Azetidin-1-yl-(2-((5-(piperazin-1-yl)pyridin-2-yl)amino)-7-(piperidin-1-yl)-7H-pyrrolo[2,3-d]pyrimidin-6-yl)methanone], for which the IC50 on CDK4/CyclinD1 was < 100 nM; against CDK1/CyclinB, > 500 nM; in the experiment with Colo205 cells it was > 2000 nM.

With `CNC(=O)c1cc2cnc(Nc3ccc(N4CCNCC4)cn3)nc2n1N1CCCCC1` [Example 18, N-methyl-2-((5-(piperazin-1-yl)pyridin-2-yl)amino)-7-(piperidin-1-yl)-7H-pyrrolo[2,3-d] pyrimidine-6-carboxamide], the IC50 on CDK4/CyclinD1 was < 100 nM; against CDK1/CyclinB, > 500 nM; with Colo205 cells, 500 to 2000 nM.

`O=C(c1cc2cnc(Nc3ccc(N4CCNCC4)cn3)nc2n1N1CCCCC1)N1CCCC1` [Example 23, (2-((5-(piperazin-1-yl)pyridin-2-yl)amino)-7-(piperidin-1-yl)-7H-pyrrolo[2,3-d]pyrimidin-6-yl)-pyrrolidin-1-ylmethanone]: the IC50 at CDK4/CyclinD1 was < 100 nM; against CDK1/CyclinB, > 500 nM; in the experiment with Colo205 cells it was > 2000 nM.

As to `CN(C)C(=O)c1cc2cnc(Nc3ccc(N4CCN(C(=O)OC(C)(C)C)CC4)cn3)nc2n1N1CCCCC1` [Example 12], the IC50 against CDK4/CyclinD1 was < 100 nM; in the experiment with Colo205 cells it was > 2000 nM.
